From patent US20050043315A1, “Aminopyrimidine compounds, processes for their preparation and pharmaceutical compositions containing them” (priority 2002, published 2005)

Structure (SMILES) | melting point [°C]
CNc1ncc(-c2ccc(=O)[nH]n2)c(-c2ccccc2)n1 [Example 8, 6-[2-(Methylamino)-4-phenyl-5-pyrimidinyl]-3(2H)-pyridazinone] | > 255
CN(C)c1ncc(-c2ccc(=O)[nH]n2)c(-c2ccccc2)n1 [Example 9, 6-[2-(Dimethylamino)-4-phenyl-5-pyrimidinyl]-3(2H)-pyridazinone] | 245 to 246
CNc1ncc(-c2ccc(=O)n(C(C)C)n2)c(-c2ccccc2)n1 [Example 10, 2-Isopropyl-6-[2-(methylamino)-4-phenyl-5-pyrimidinyl]-3(2H)-pyridazinone] | 160 to 161
CC(C)n1nc(-c2cnc(N(C)C)nc2-c2ccccc2)ccc1=O [Example 11, 6-[2-(Dimethylamino)-4-phenyl-5-pyrimidinyl]-2-isopropyl-3(2H)-pyridazinone] | 155 to 156
CC(C)n1nc(-c2cnc(N3CCOCC3)nc2-c2ccccc2)ccc1=O [Example 17, 2-isopropyl-6-[2-morpholino-4-phenyl-5-pyrimidinyl]-3(2H)-pyridazinone] | 200.5 to 202
CC(C)n1nc(-c2cnc(Nc3ccccc3)nc2-c2ccccc2)ccc1=O [Example 19, 6-(2-Anilino-4-phenyl-5-pyrimidinyl)-2-isopropyl-3(2H)-pyridazinone] | 200 to 202
CC(C)n1nc(-c2cnc(N)nc2-c2ccc(C(F)(F)F)cc2)ccc1=O [Example 26, 6-{2-Amino-4-[4-(trifluoromethyl)phenyl]-5-pyrimidinyl}-2-isopropyl-3(2H)-pyridazinone] | 209 to 210.5
COc1ccc(-c2nc(N)ncc2-c2ccc(=O)[nH]n2)cc1 [Example 27, 6-[2-amino-4-(4-methoxyphenyl)-5-pyrimidinyl]-3(2H)-pyridazinone] | 142
Nc1ncc(-c2ccc(=O)[nH]n2)c(-c2cccc(F)c2)n1 [Example 28, 6-[2-Amino-4-(3-fluorophenyl)-5-pyrimidinyl]-3(2H)-pyridazinone] | 249
COc1ccc(-c2nc(N)ncc2-c2ccc(=O)[nH]n2)cc1F [Example 29, 6-[2-Amino-4-(3-fluoro-4-methoxyphenyl)-5-pyrimidinyl]-3(2H)-pyridazinone] | 250
Nc1ncc(-c2ccc(=O)[nH]n2)c(-c2cccnc2)n1 [Example 31, 6-[2-Amino-4-(3-pyridinyl)-5-pyrimidinyl]-3(2H)-pyridazinone] | 256
Nc1ncc(-c2ccc(=O)[nH]n2)c(-c2ccco2)n1 [Example 34, 6-[2-Amino-4-(2-furyl)-5-pyrimidinyl]-3(2H)-pyridazinone] | 262 to 268
Cc1ccc(-c2nc(N)ncc2-c2ccc(=O)[nH]n2)cc1 [Example 35, 6-[2-Amino-4-(4-methylphenyl)-5-pyrimidinyl]-3(2H)-pyridazinone] | 249
COc1ccc(-c2nc(N)ncc2-c2ccc(=O)[nH]n2)cc1OC [Example 37, 6-[2-Amino-4-(3,4-dimethoxyphenyl)-5-pyrimidinyl]-3(2H)-pyridazinone] | 225
Nc1ncc(-c2ccc(=O)[nH]n2)c(-c2ccc(Cl)c(Cl)c2)n1 [Example 38, 6-[2-Amino-4-(3,4-dichlorophenyl)-5-pyrimidinyl]-3(2H)-pyridazinone] | 300
Nc1ncc(-c2ccc(=O)[nH]n2)c(-c2cccs2)n1 [Example 41, 6-[2-Amino-4-(2-thienyl)-5-pyrimidinyl]-3(2H)-pyridazinone] | 265
COc1cccc(-c2nc(N)ncc2-c2ccc(=O)[nH]n2)c1 [Example 43, 6-[2-Amino-4-(3-methoxyphenyl)-5-pyrimidinyl)-3(2H)-pyridazinone] | 134
COc1ccc(-c2nc(N)ncc2-c2ccc(=O)n(C(C)C)n2)cc1F [Example 46, 6-[2-Amino-4-(3-fluoro-4-methoxyphenyl)-5-pyrimidinyl]-2-isopropyl-3(2H)-pyridazinone] | 174
CC(C)n1nc(-c2cnc(N)nc2-c2ccc(F)c(F)c2)ccc1=O [Example 49, 6-[2-Amino-4-(3,4-difluorophenyl)-5-pyrimidinyl]-2-isopropyl-3(2H)-pyridazinone] | 208
COc1ccc(-c2nc(N)ncc2-c2ccc(=O)n(C(C)C)n2)cc1OC [Example 51, 6-[2-Amino-4-(3,4-dimethoxyphenyl)-5-pyrimidinyl]-2-isopropyl-3(2H)-pyridazinone] | 167

Now from value to compound:

melting point [°C] | Structure (SMILES)
246 | CC(C)n1nc(-c2cnc(N)nc2-c2ccc(O)cc2)ccc1=O (hydrate or solvate) [Example 185, 6-[2-amino-4-(4-hydroxyphenyl)-5-pyrimidinyl]-2-isopropyl-3(2H)-pyridazinone]
241 | CC(C)n1nc(-c2cnc(N)nc2-c2ccccc2O)ccc1=O (hydrate or solvate) [Example 186, 6-[2-Amino-4-(2-hydroxyphenyl)-5-pyrimidinyl]-2-isopropyl-3(2H)-pyridazinone]
204 | CC(C)n1nc(-c2cnc(N)nc2-c2cccc(O)c2)ccc1=O (hydrate or solvate) [Example 187, 6-[2-Amino-4-(3-hydroxyphenyl)-5-pyrimidinyl]-2-isopropyl-3(2H)-pyridazinone]
250 | Cn1nc(-c2cnc(N)nc2-c2ccc(O)cc2)ccc1=O (hydrate or solvate) [Example 223, 6-[2-Amino-4-(4-hydroxyphenyl)-5-pyrimidinyl)-2-methyl-3(2H)-pyridazinone]
260 | Cn1nc(-c2cnc(N)nc2-c2ccccc2O)ccc1=O (hydrate or solvate) [Example 224, 6-[2-Amino-4-(2-hydroxyphenyl)-5-pyrimidinyl]-2-methyl-3(2H)-pyridazinone]
285 | Cn1nc(-c2cnc(N)nc2-c2cccc(O)c2)ccc1=O (hydrate or solvate) [Example 225, 6-[2-Amino-4-(3-hydroxyphenyl)-5-pyrimidinyl]-2-methyl-3(2H)-pyridazinone]
254 to 255 | Cn1nc(-c2cnc(N)nc2-c2ccccc2)ccc1=O [Example 3, 6-(2-Amino-4-phenyl-5-pyrimidinyl)-2-methyl-3(2H)-pyridazinone]
188 to 189 | CCCn1nc(-c2cnc(N)nc2-c2ccccc2)ccc1=O [Example 5, 6-(2-Amino-4-phenyl-5-pyrimidinyl)-2-propyl-3(2H)-pyridazinone]
229 to 230 | Nc1ncc(-c2ccc(=O)n(Cc3ccccc3)n2)c(-c2ccccc2)n1 [Example 6, 6-(2-Amino-4-phenyl-5-pyrimidinyl)-2-benzyl-3(2H)-pyridazinone]
238 to 239 | CC(C)n1nc(-c2cnc(N)nc2-c2ccc(F)cc2)ccc1=O [Example 13, 6-[2-amino-4-(4-fluorophenyl)-5-pyrimidinyl]-2-isopropyl-3(2H)-pyridazinone]
203 to 205 | CC(C)n1nc(-c2cnc(N)nc2-c2ccccc2Br)ccc1=O [Example 15, 6-[2-Amino-4-(2-bromophenyl)-5-pyrimidinyl]-2-isopropyl-3(2H)-pyridazinone]
239 to 240.5 | CC(C)n1nc(-c2cnc(N)nc2-c2ccccc2F)ccc1=O [Example 20, 6-[2-Amino-4-(2-fluorophenyl)-5-pyrimidinyl]-2-isopropyl-3(2H)-pyridazinone]
220 to 221.5 | CC(C)n1nc(-c2cnc(N)nc2-c2cccc(F)c2)ccc1=O [Example 21, 6-[2-Amino-4-(3-fluorophenyl)-5-pyrimidinyl]-2-isopropyl-3(2H)-pyridazinone]
227 to 228.5 | CC(C)n1nc(-c2cnc(N)nc2-c2ccccc2Cl)ccc1=O [Example 22, 6-[2-Amino-4-(2-chlorophenyl)-5-pyrimidinyl]-2-isopropyl-3(2H)-pyridazinone]
236 to 237 | CC(C)n1nc(-c2cnc(N)nc2-c2cccc(Cl)c2)ccc1=O [Example 23, 6-[2-Amino-4-(3-chlorophenyl)-5-pyrimidinyl]-2-isopropyl-3(2H)-pyridazinone]
160 to 161 | CC(C)n1nc(-c2cnc(N)nc2-c2ccccc2C(F)(F)F)ccc1=O [Example 24, 6-{2-Amino-4-[2-(trifluoromethyl)phenyl]-5-pyrimidinyl}-2-isopropyl-3(2H)-pyridazinone]
163.5 to 165 | CC(C)n1nc(-c2cnc(N)nc2-c2cccc(C(F)(F)F)c2)ccc1=O [Example 25, 6-{2-Amino-4-[3-(trifluoromethyl)phenyl]-5-pyrimidinyl}-2-isopropyl-3(2H)-pyridazinone]
313 | Cc1ccccc1-c1nc(N)ncc1-c1ccc(=O)[nH]n1 [Example 39, 6-[2-Amino-4-(2-methylphenyl)-5-pyrimidinyl]-3(2H)-pyridazinone]
273 | COc1ccccc1-c1nc(N)ncc1-c1ccc(=O)[nH]n1 [Example 40, 6-[2-Amino-4-(2-methoxyphenyl)-5-pyrimidinyl]-3(2H)-pyridazinone]
216 | Cc1cccc(-c2nc(N)ncc2-c2ccc(=O)[nH]n2)c1 [Example 42, 6-[2-Amino-4-(3-methylphenyl)-5-pyrimidinyl]-3(2H)-pyridazinone]
216.5 | COc1ccc(-c2nc(N)ncc2-c2ccc(=O)n(C(C)C)n2)cc1 [Example 44, 6-[2-amino-4-(4-methoxyphenyl)-5-pyrimidinyl]-2-isopropyl-3(2H)-pyridazinone]
195 | CC(C)n1nc(-c2cnc(N)nc2-c2ccc(Cl)cc2)ccc1=O [Example 45, 6-[2-Amino-4-(4-chlorophenyl)-5-pyrimidinyl]-2-isopropyl-3(2H)-pyridazinone]
224 | Cc1ccc(-c2nc(N)ncc2-c2ccc(=O)n(C(C)C)n2)cc1 [Example 48, 6-[2-Amino-4-(4-methylphenyl)-5-pyrimidinyl]-2-isopropyl-3(2H)-pyridazinone]
176 | CC(C)n1nc(-c2cnc(N)nc2-c2ccc(Cl)c(Cl)c2)ccc1=O [Example 50, 6-[2-Amino-4-(3,4-dichlorophenyl)-5-pyrimidinyl]-2-isopropyl-3(2H)-pyridazinone]
